Assay [1] concerns P388. The assay can be described thus: Cytotoxicity against mouse P388 cells. It is filed as functional.
In another assay the test system is 9KB. Kind of assay: Cytotoxicity against human 9KB cells. It counts as functional, cell-based.
Assay [2] relates to P388. Kind of assay: In vivo cytotoxicity against mouse P388 cells. It is filed as functional, organism-based.
The nature of assay [3]: Cytotoxicity against human 9KB5 cells. It counts as functional. To be noted: read-out: ED50 (the source's name).

Values after ≈ are worked out from the molar mass of the structure shown. Active and inactive are the calls of the source. The rule behind the calls is not given here.

Consider `CC1(C)CCC[C@]2(C)C3=C(COC3=O)[C@H](O)C[C@@H]12`, for which the result in the assay with P388 [1], with 9KB and in the assay with P388 [2] was inactive.
Regarding `CC(=O)O[C@@H]1[C@@H](O)C2=C(C(=O)OC2)[C@@]2(C)CCCC(C)(C)[C@H]12`, the outcome with P388 [1], with 9KB and in the assay on P388 [2] was inactive.
As for `CC(=O)O[C@@H]1C=C(C=O)[C@](O)(C=O)[C@@]2(C)CCCC(C)(C)[C@H]12` [CINNAMODIAL], the EC50 in the assay with P388 [1] (read-out: ED50 (the source's name)) amounted to 2.2 µg/mL (≈ 7.13 µM). Also, the result with P388 [2] was inactive.
On to `CC(=O)O[C@@H]1CC2=C(C(=O)OC2)[C@@]2(C)CCCC(C)(C)[C@H]12`, for which the result in the assay on P388 [1], in the assay with 9KB and in the assay on P388 [2] was inactive.
As for `CC(=O)O[C@@H]1C=C2C(=O)OC[C@]2(O)[C@@]2(C)CCCC(C)(C)[C@H]12` [CINNAMOSMOLIDE], the result in the assay with P388 [1] and in the assay on P388 [2] was inactive. In assay [3], the EC50 stood at 1.2 µg/mL (≈ 3.89 µM).

The record behind these values is ChEMBL document CHEMBL1151344, “Potential anticancer agents. XVI. Isolation of bicyclofarnesane sesquiterpenoids from Capsicodendron dinisii” (1980).
